BigSolDB 2.1

CC(=O)Oc1ccccc1C(=O)Nc1ncc([N+](=O)[O-])s1
solubility (mole fraction)
Details	278.15 K	283.15 K	288.15 K	293.15 K	298.15 K	303.15 K	308.15 K	313.15 K	318.15 K	323.15 K
in DMF	0.0665	0.0716	0.077	0.0825	0.0882	0.0934	0.0992	0.106	0.112	0.118
in NMP	0.0891	0.093	0.0964	0.1	0.104	0.107	0.112	0.116	0.119	0.123
in isopropanol	0.000205	0.000239	0.000277	0.000319	0.000367	0.000419	0.000476	0.000542	0.000607	0.000684
in water	1.26e-07	1.66e-07	2.23e-07	2.93e-07	3.81e-07	4.98e-07	6.34e-07	8.11e-07	9.9e-07	1.24e-06
